Legend:
[1] = test system: HDACs (HeLa nuclear extract); test: HDAC deacetylation inhibition assay, HeLa nuclear extract with BOC-Ac-Lys-AMC substrate; format: biochemical, human; settings: BOC-Ac-Lys-AMC substrate; for HDAC inhibition (%): compound at 100 µM; for IC50: read-out: IC50 values, HeLa nuclear extract
Procedure: With these N^ɛ-acetyl lysine derivatives in hand (schemes 1–3), we then did the pilot screening for general HDAC inhibitory activity at a compound's concentration of 100 µM. All tested compounds were subjected to the inhibition assay against the HDAC deacetylation reaction by using a HeLa nuclear extract as a source of HDACs and BOC-Ac-Lys-AMC as a substrate.
HDACS inhibition assay in vitro
In vitro HDACs inhibition assays were conducted as previously described. In brief, 4 μL of […]
(1μL), then fluorogenic substrate Boc-Lys(acetyl)-AMC (100 μM) and Buffer A (50 mM Tis-HCl pH=8.0, 150 mM NaCl, 30 mM KCl, 10 mM MgCl2) were added. After incubation at 37℃ for 1h, […]
And then incubation at 37℃ for 1h, the mixture was stopped by the addition of 50 μL of Buffer B (200mM HCl/300 mM Acetic acid), fluorescence intensity was measured using a microplate reader at excitation and emission wavelengths of 360 nm and 460 nm. The inhibition ratios were calculated from the fluorescence intensity readings of tested wells relative to those of control wells, […]
regression analysis of the concentration/inhibition data. All experiments were done in triplicate. […]

HepG2 cells = test: MTS cell proliferation assay, HepG2; format: cell-based, human
Procedure: (§1) Because of the great anti-tumour potential of HDAC inhibitors, we did the antiproliferative evaluation of 18c against K562 cells, A549 cells and HepG2 cells using MTS assay as previously described. […]
(§2) The rate of cell survival under the action of test substances was evaluated by an improved MTS assay as previously described. In brief, A549 (5000 cells / well) , HepG2 (5000 cells / well), HEK293 (5000 cells / well) and K562 (1 ×10^4 cells/well) cell lines were seeded into 96-well plates in 100 µL medium. After overnight incubation, each well was added with different […]
(§3) 48 hours 5ul of MTS reagent solution was added into each well and the cells were incubated for another 4 hours at 37℃ under 5% CO2 environment. The absorbance was measured at 490 nm in […]
(§4) a Microplate to determine the cell viability. The absorbance was directly proportional to the number of viable cells. All experiments were done in triplicate. […]
(§5) calculate and compare their selective index. […]
(§6) Unbound antibodies

K562 cells = test: MTS cell proliferation assay, K562; format: cell-based, human
Procedure: as §1, §2, §3, §4, §5, §6

A549 cells = test: MTS cell proliferation assay, A549; format: cell-based, human
Procedure: as §1, §2, §3, §4, §5, §6

HEK293 = test: MTS cell proliferation assay, HEK293 (non-cancerous kidney cell); format: cell-based; settings: Homo sapiens, HEK293; MTS assay, 48 hours; normal cells
Procedure: as §1, §2, §3, §4, §5, §6

HDAC8 = biological target: T1, HDAC8 (Homo sapiens, UniProt Q9BY41); test: HDAC subtype selectivity assay with subtype substrate, HDAC8; format: biochemical; settings: read-out: HDAC Inhibition (%) HDAC8
T1 construct: Hela nuclear extract; endogenous in cells; host or cells: HeLa nuclear extract
T1 sequence (Q9BY41 1-377): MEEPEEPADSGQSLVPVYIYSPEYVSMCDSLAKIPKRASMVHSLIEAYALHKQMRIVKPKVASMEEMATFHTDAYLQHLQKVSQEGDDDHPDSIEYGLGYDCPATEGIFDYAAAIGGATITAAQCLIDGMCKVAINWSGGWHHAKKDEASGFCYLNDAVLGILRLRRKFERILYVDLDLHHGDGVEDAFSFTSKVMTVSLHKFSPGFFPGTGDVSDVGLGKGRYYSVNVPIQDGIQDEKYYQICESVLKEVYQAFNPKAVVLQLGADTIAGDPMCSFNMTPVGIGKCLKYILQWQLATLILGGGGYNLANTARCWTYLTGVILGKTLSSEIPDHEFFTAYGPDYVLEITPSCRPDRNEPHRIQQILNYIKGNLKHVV

[2] = Homo sapiens, MTS assay, 48 hours

Structure (SMILES) | HDAC inhibition (%) [1] [%] | other results
O=C(O)CCC(=O)NCCCC[C@H](NC(=O)OCc1ccccc1)C(=O)Nc1ccccc1 [Compound 9] | 37.5 ± 0.6 | –
O=C(O)/C=C/C(=O)NCCCC[C@H](NC(=O)OCc1ccccc1)C(=O)Nc1ccccc1 [Compound 10] | 38.7 ± 1.0 | –
O=C(CCC(=O)NCCCC[C@H](NC(=O)OCc1ccccc1)C(=O)Nc1ccccc1)NO [Compound 11] | 86.0 ± 3.0 | IC50 [1]: 25.4 ± 1.35 µM
Nc1ccccc1NC(=O)CCC(=O)NCCCC[C@H](NC(=O)OCc1ccccc1)C(=O)Nc1ccccc1 [Compound 12] | 30.7 ± 3.7 | –
O=C(/C=C/C(=O)NCCCC[C@H](NC(=O)OCc1ccccc1)C(=O)Nc1ccccc1)NO [Compound 13] | 39.3 ± 3.1 | –
O=C(N[C@@H](CCCCNC(=O)c1cccnc1)C(=O)Nc1ccccc1)OCc1ccccc1 [Compound 14a] | 39.6 ± 0.4 | –
Cc1ccc(C(=O)NCCCC[C@H](NC(=O)OCc2ccccc2)C(=O)Nc2ccccc2)cn1 [Compound 14b] | 39.2 ± 0.8 | –
O=C(/C=C/c1cccnc1)NCCCC[C@H](NC(=O)OCc1ccccc1)C(=O)Nc1ccccc1 [Compound 14c] | 51.0 ± 1.0 | –
O=C(N[C@@H](CCCCNC(=O)c1ccc[nH]1)C(=O)Nc1ccccc1)OCc1ccccc1 [Compound 14d] | 48.4 ± 4.4 | –
O=C(N[C@@H](CCCCNC(=O)c1ccco1)C(=O)Nc1ccccc1)OCc1ccccc1 [Compound 14e] | 54.0 ± 1.9 | –
O=C(N[C@@H](CCCCNC(=O)c1cccs1)C(=O)Nc1ccccc1)OCc1ccccc1 [Compound 14f] | 45.0 ± 0.4 | –
O=C(CS)NCCCC[C@H](NC(=O)OCc1ccccc1)C(=O)Nc1ccccc1 [Compound 14g] | 10.3 ± 4.9 | –
O=C(N[C@@H](CCCCNC(=O)c1cnc2ccccc2c1)C(=O)Nc1ccccc1)OCc1ccccc1 [Compound 14h] | 28.3 ± 4.6 | –
O=C(N[C@@H](CCCCNC(=O)c1ccc2ncccc2c1)C(=O)Nc1ccccc1)OCc1ccccc1 [Compound 14i] | 36.8 ± 1.1 | –
O=C(N[C@@H](CCCCNC(=O)c1c[nH]c2ccccc12)C(=O)Nc1ccccc1)OCc1ccccc1 [Compound 14j] | 12.2 ± 6.5 | –
O=C(N[C@@H](CCCCNC(=O)C1=CCc2ccccc21)C(=O)Nc1ccccc1)OCc1ccccc1 [Compound 14k] | 22.4 ± 0.2 | –
O=C(N[C@@H](CCCCNCc1c[nH]c2ccccc12)C(=O)Nc1ccccc1)OCc1ccccc1 [Compound 14l] | 3.1 ± 0.5 | –

Structure (SMILES) | HDAC inhibition (%) [1] [%] | other results
O=C(N[C@@H](CCCCNC(=O)c1coc2ccccc12)C(=O)Nc1ccccc1)OCc1ccccc1 [Compound 14m] | 14.3 ± 0.5 | –
O=C(N[C@@H](CCCCNC(=O)c1csc2ccccc12)C(=O)Nc1ccccc1)OCc1ccccc1 [Compound 14n] | 16.2 ± 2.0 | –
O=C(CC1SC(=O)NC1=O)NCCCC[C@H](NC(=O)OCc1ccccc1)C(=O)Nc1ccccc1 (stereo partly drawn) [Compound 14o] | 48.6 ± 0.5 | –
CC(C)(C)OC(=O)N[C@@H](Cc1c[nH]c2ccccc12)C(=O)NCCCC[C@H](NC(=O)OCc1ccccc1)C(=O)Nc1ccccc1 [Compound 14p] | 24.7 ± 2.8 | –
N[C@@H](Cc1c[nH]c2ccccc12)C(=O)NCCCC[C@H](NC(=O)OCc1ccccc1)C(=O)Nc1ccccc1 [Compound 14q] | 36.2 ± 0.4 | –
COC(=O)CC(=O)NCCCC[C@H](NC(=O)OCc1ccccc1)C(=O)Nc1ccccc1 [Compound 15a] | 19.4 ± 10.9 | –
COC(=O)CCCCC(=O)NCCCC[C@H](NC(=O)OCc1ccccc1)C(=O)Nc1ccccc1 [Compound 15b] | 2.9 ± 0.8 | –
COC(=O)CCCCCCC(=O)NCCCC[C@H](NC(=O)OCc1ccccc1)C(=O)Nc1ccccc1 [Compound 15c] | 7.1 ± 0.3 | –
O=C(O)CC(=O)NCCCC[C@H](NC(=O)OCc1ccccc1)C(=O)Nc1ccccc1 [Compound 16a] | 4.0 ± 1.7 | –
O=C(O)CCCCC(=O)NCCCC[C@H](NC(=O)OCc1ccccc1)C(=O)Nc1ccccc1 [Compound 16b] | 4.3 ± 0.5 | –
O=C(O)CCCCCCC(=O)NCCCC[C@H](NC(=O)OCc1ccccc1)C(=O)Nc1ccccc1 [Compound 16c] | 1.1 ± 0.4 | antiproliferative activity (HepG2 cells; 500 µM, MTS): no obvious antiproliferative activities; IC50 (HepG2 cells; [2]): > 500 µM; antiproliferative activity (K562 cells; 500 µM, MTS): no obvious antiproliferative activities; IC50 (K562 cells; [2]): > 500 µM; antiproliferative activity (A549 cells; 500 µM, MTS): no obvious antiproliferative activities; IC50 (A549 cells; [2]): > 500 µM; IC50 (HEK293): > 500 µM
Nc1ccccc1NC(=O)CC(=O)NCCCC[C@H](NC(=O)OCc1ccccc1)C(=O)Nc1ccccc1 [Compound 17a] | 7.0 ± 0.4 | –
Nc1ccccc1NC(=O)CCCCC(=O)NCCCC[C@H](NC(=O)OCc1ccccc1)C(=O)Nc1ccccc1 [Compound 17b] | 69.3 ± 3.4 | –
Nc1ccccc1NC(=O)CCCCCCC(=O)NCCCC[C@H](NC(=O)OCc1ccccc1)C(=O)Nc1ccccc1 [Compound 17c] | 50.6 ± 6.9 | –
O=C(CCCCC(=O)NCCCC[C@H](NC(=O)OCc1ccccc1)C(=O)Nc1ccccc1)NO [Compound 18b] | 99.9 ± 0.9 | IC50 [1]: 10.4 ± 3.86 µM
O=C(CCCCCCC(=O)Nc1ccccc1)NO [SAHA (1), Vorinostat, reference compound] | – | inhibition at 1 µM (HDAC8): 41.19 ± 0.18%

Source: PMC6599804, “N^ɛ-acetyl lysine derivatives with zinc binding groups as novel HDAC inhibitors” (Royal Society Open Science, 2019)
